Laboratory results from ChEMBL document CHEMBL3351993, “Design, synthesis and docking study of 5-(substituted benzylidene)thiazolidine-2,4-dione derivatives as inhibitors of protein tyrosine phosphatase 1B” (Bioorg Med Chem Lett, 2014).

target: T1, Tyrosine-protein phosphatase non-receptor type 1 (Homo sapiens, UniProt P18031); test: Inhibition of human recombinant PTP1B using pNPP substrate at 37 degC measured after 30 mins
T1 sequence (P18031 whole entry): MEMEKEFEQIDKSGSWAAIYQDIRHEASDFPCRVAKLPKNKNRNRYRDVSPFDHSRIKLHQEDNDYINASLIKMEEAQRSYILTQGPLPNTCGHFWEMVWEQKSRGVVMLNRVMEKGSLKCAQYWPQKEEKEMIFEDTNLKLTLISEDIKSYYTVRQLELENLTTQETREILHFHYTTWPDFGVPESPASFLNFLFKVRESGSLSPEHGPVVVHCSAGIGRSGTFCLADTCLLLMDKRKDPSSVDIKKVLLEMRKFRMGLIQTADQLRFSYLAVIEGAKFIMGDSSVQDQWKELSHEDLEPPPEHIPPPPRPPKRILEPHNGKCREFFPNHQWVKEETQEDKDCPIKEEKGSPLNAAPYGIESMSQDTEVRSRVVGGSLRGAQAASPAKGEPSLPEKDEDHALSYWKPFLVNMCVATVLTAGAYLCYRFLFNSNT

Structure (SMILES)	IC50 [µM]
COc1cc(OCC=C(C)C)c(Br)cc1/C=C1\SC(=O)NC1=O	5.3
C=CCc1cc(/C=C2\SC(=O)NC2=O)c(OC)cc1OC1CCCCO1 (centres undefined)	12.2
C=CCc1cc(/C=C2\SC(=O)N(CC=C(C)C)C2=O)c(OC)cc1O	12
COc1cc(OCc2ccccc2)c(Br)cc1/C=C1\SC(=O)NC1=O	7.6
C=CCN1C(=O)S/C(=C\c2cc(Br)c(OCC=C(C)C)cc2OC)C1=O	17
CCCCOc1cc(OC)c(/C=C2\SC(=O)N(CCCC)C2=O)cc1Br	> 30
C=CCc1cc(/C=C2\SC(=O)N(C)C2=O)c(OC)cc1OC1CCCCO1 (centres undefined)	> 30
C=CCc1cc(/C=C2\SC(=O)N(Cc3ccccc3)C2=O)c(OC)cc1O	7.2
C=CCc1cc(/C=C2\SC(=O)N(C)C2=O)c(OC)cc1O	> 30
CCCCOc1cc(OC)c(/C=C2\SC(=O)NC2=O)cc1Br	4.9
C=CCc1cc(/C=C2\SC(=O)N(CC=C)C2=O)c(OC)cc1OC1CCCCO1 (centres undefined)	> 30
C=CCc1cc(/C=C2\SC(=O)N(C(C)C)C2=O)c(OC)cc1OC1CCCCO1 (centres undefined)	> 30
C=CCc1cc(/C=C2\SC(=O)NC2=O)c(OC)cc1O	29.3
COc1cc(OCc2ccccc2)c(Br)cc1/C=C1\SC(=O)N(C)C1=O	8.1
C=CCc1cc(/C=C2\SC(=O)N(CC=C(C)C)C2=O)c(OC)cc1OC1CCCCO1 (centres undefined)	22.7
CCCCOc1cc(OC)c(/C=C2\SC(=O)N(C(C)C)C2=O)cc1Br	9.7
COc1cc(O)ccc1/C=C1\SC(=O)NC1=O	29.8

Continued, values first:

IC50 [µM]	Structure (SMILES)
22.3	COc1cc(OC)c(/C=C2\SC(=O)N(C)C2=O)cc1Br
6.4	C=CCc1cc(/C=C2\SC(=O)N(C(C)C)C2=O)c(OC)cc1O
10	COc1cc(OCC=C(C)C)c(Br)cc1/C=C1\SC(=O)N(CC=C(C)C)C1=O
> 30	C=CCc1cc(/C=C2\SC(=O)N(CC=C)C2=O)c(OC)cc1O
20.6	C=CCc1cc(/C=C2\SC(=O)N(CCCC)C2=O)c(OC)cc1OC1CCCCO1 (centres undefined)
6.6	CCCCOc1cc(OC)c(/C=C2\SC(=O)N(Cc3ccccc3)C2=O)cc1Br
12.3	CCCCN1C(=O)S/C(=C\c2cc(Br)c(OCC=C(C)C)cc2OC)C1=O
10.3	COc1cc(OCC=C(C)C)c(Br)cc1/C=C1\SC(=O)N(Cc2ccccc2)C1=O
14.2	COc1cc(OC)c(/C=C2\SC(=O)NC2=O)cc1Br
11.3	COc1cc(O)c(Br)cc1/C=C1\SC(=O)NC1=O
12.1	CCCCOc1cc(OC)c(/C=C2\SC(=O)N(C)C2=O)cc1Br
> 30	C=CCc1cc(/C=C2\SC(=O)N(Cc3ccccc3)C2=O)c(OC)cc1OC1CCCCO1 (centres undefined)
7.9	C=CCN1C(=O)S/C(=C\c2cc(Br)c(OCCCC)cc2OC)C1=O
4.6	COc1cc(OCC=C(C)C)c(Br)cc1/C=C1\SC(=O)N(C(C)C)C1=O
8.2	COc1cc(OCC=C(C)C)c(Br)cc1/C=C1\SC(=O)N(C)C1=O
9.6	C=CCc1cc(/C=C2\SC(=O)N(CCCC)C2=O)c(OC)cc1O
8.1	C=CCOc1cc(OC)c(/C=C2\SC(=O)NC2=O)cc1Br
